Like-named read-outs stand apart in the source and are kept apart here.

For assay [1], the target named is T1, Link_TSG6 (Homo sapiens, UniProt P98066).
T1 construct: made in house
The assay is described as follows: ITC of HA oligosaccharides binding to Link_TSG6. As to conditions: for N / ΔG / ΔH / −TΔS / Kd: 25 °C, 5 mM MES pH 6.0, mean ± SEM; for N: 0.029 mM Link_TSG6, 0.29 mM oligosaccharide; for N / Kd: four titrations; for Kd: read-out: KD; for % Binding affinity Link_TSG6: Table 6, relative to unmodified oligosaccharide of the same length, by ITC. Here is the method:
ITC experiments were performed using a MicroCal PEAQ-ITC instrument (Malvern Instruments). Oligosaccharide stock solutions were prepared at 0.29 mM (in 5 mM MES, pH 6.0) and injected (18 × 2 μl with 120 s spacing between injections) into the cell containing ∼200 μl Link_TSG6 (0.029 mM) in matched buffer at 25 °C. Data were fit to a one site binding model, after subtracting the heats from the last three injections to account for heat of dilution of the oligosaccharide into buffer. Each oligosaccharide was analyzed in four independently performed ITC experiments.
Background: Isothermal titration calorimetry measures the heat released or taken up as one component is titrated into another.

Another assay has as its target T2, recombinant human TSG-6 (Homo sapiens, UniProt P19827+P98066).
T2 construct: TSG-6–mediated HC-transfer assays (using full-length TSG6); purchased R&D Systems
Kind of assay: In vitro HC-transfer assay (IαI + rhTSG-6, Western blot anti-HC1). It is filed as biochemical. Particulars: 15 μM HA, 1.8 μM IαI, rhTSG-6, 2 h at 37 °C; for Substrate for HC transfer: Table 6; for Activity as substrate for HC transfer (text): Western blot anti-HC1. Here is the method: Covalent transfer of HC from IαI onto unmodified and chemically modified HA oligosaccharides was analyzed using the assay described previously ([26]). All reactions were performed using a buffer of 20 mM Hepes, pH 7.5, 150 mM NaCl, and 5 mM MgCl2. In a “standard” assay, HA oligosaccharides were at 15 μM, human IαI ([97]) 1.8 at μM (based on a molecular weight of 180 kDa), and recombinant human TSG-6 (R&D Systems) at 2.8 μM (based on a molecular weight of 35 kDa). Reaction mixtures were analyzed by SDS-PAGE using 4 to 12% bis-tris polyacrylamide gels (Invitrogen). For Western blot analysis, proteins were transferred onto nitrocellulose membrane (GE Healthcare) and incubated with antisera against HC1 (CP7, 1:10,000; ([98])). Bound primary antibody was detected using goat-anti-rabbit IgG conjugated to IR dye (LI-COR Biosciences) and blots imaged using an Odyssey Clx near-IR fluorescence imaging system (LICOR Biosciences).
For orientation: Immunoblotting shows a protein as a band on a membrane.

For another assay, the target named is T3, hisCD44_HABD^20–169 (Homo sapiens, UniProt P16070).
T3 construct: A novel construct consisting of residues 20 to 169 of human CD44 and an N-terminal six-histidine tag; made in house
T3 sequence (P16070 20-169): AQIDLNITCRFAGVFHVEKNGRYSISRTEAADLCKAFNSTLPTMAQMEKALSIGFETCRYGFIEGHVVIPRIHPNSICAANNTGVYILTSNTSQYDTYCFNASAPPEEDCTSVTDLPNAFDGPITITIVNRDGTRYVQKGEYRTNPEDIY
The assay is described as follows: MST of HA oligosaccharides binding to hisCD44_HABD^20–169. As to conditions: for % Binding affinity hisCD44_HABD^20–169: Table 6, relative to unmodified oligosaccharide of the same length, by MST. Here is the method: For hisCD44_HABD^20–169, interactions with HA oligosaccharides were assessed using MST. Protein (200 nM) was labeled with 5 μM red-Tris-NTA-650 dye following the manufacturer’s instructions in 10 mM Hepes, pH 7.4, 150 mM NaCl, 0.05% (v/v) Tween-20 (interaction buffer). Stock solutions of HA oligosaccharides (5 mM in interaction buffer) were serially diluted (1:1 in interaction buffer) 16 times before each concentration was mixed with an equal volume of labeled protein (10 nM final concentration hisCD44_HABD^20–169). Samples were loaded into standard glass capillaries (NanoTemper) and thermophoresis measured at 25 °C (with active temperature control) using a Monolith NT.115pico instrument (NanoTemper) running NT Control software (version 1.0.1). All experiments were performed in triplicate and data analyzed with the “KD fit model” in the NT Analysis software (version 2.0.2).

The subject of assay [2] is Link_TSG6. Also noted: method as in PMID 24403066. As to conditions: cited from earlier work.
Where [3] appears, read: Table 2, MST, 10 mM Hepes pH 7.5, 150 mM NaCl, 0.05% Tween-20, 25 °C, mean (±SD), three titrations, read-out: KD.
[4] abbreviates: Table 5, MST, 10 mM Hepes pH 7.5, 150 mM NaCl, 0.05% Tween-20, 25 °C, mean ± SD, three titrations, read-out: KD.

T1 sequence (P98066 36-129 limits assumed): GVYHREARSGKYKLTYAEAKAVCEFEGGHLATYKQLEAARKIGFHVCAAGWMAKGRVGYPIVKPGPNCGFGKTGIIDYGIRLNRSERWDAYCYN
T2 sequence (P98066 18-277): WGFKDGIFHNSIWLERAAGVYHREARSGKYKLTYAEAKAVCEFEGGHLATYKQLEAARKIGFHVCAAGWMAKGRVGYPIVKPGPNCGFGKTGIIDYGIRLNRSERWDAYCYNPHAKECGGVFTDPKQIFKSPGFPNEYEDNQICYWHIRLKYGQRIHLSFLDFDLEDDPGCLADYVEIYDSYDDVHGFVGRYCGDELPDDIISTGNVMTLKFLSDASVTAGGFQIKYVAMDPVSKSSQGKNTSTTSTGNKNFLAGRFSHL
T2 sequence (P19827 35-672 limits assumed): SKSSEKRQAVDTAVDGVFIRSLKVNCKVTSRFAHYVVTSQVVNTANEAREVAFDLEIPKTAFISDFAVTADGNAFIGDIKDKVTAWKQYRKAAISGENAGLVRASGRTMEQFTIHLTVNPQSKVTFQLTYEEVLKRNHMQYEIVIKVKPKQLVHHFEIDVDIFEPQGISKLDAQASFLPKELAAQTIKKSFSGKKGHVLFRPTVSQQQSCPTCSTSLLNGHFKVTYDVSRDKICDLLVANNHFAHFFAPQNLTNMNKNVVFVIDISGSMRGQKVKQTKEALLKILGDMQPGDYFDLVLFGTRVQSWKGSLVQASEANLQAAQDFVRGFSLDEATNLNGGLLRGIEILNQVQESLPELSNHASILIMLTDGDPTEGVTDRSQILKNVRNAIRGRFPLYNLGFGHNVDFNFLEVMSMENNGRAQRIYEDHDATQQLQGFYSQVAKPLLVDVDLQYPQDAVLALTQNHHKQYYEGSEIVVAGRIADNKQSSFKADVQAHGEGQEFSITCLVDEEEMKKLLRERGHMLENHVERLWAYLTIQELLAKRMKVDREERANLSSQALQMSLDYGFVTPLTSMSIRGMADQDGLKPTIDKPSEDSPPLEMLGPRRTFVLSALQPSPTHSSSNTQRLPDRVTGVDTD

For `CC(=O)N[C@H]1[C@H](O[C@H]2[C@H](O)[C@@H](O)[C@H](O[C@H]3[C@H](O)[C@@H](CO)O[C@@H](O[C@H]4[C@H](O)[C@@H](O)[C@H](O[C@H]5[C@H](O)[C@@H](CO)OC(O)[C@@H]5NC(C)=O)O[C@@H]4C(=O)O)[C@@H]3NC(C)=O)O[C@@H]2C(=O)O)O[C@H](CO)[C@@H](O)[C@@H]1O[C@@H]1O[C@H](C(=O)O)[C@@H](O)[C@H](O)[C@H]1O` (stereo partly shown) [HA6^AN, reference compound], on Link_TSG6 [1] (Table 1, ITC), the N stood at 1.04 ± 0.04, the ΔG was -8.13 ± 0.02 kcal/mol, the ΔH was -8.29 ± 0.19 kcal/mol and the “−TΔS” value was found to be 0.162 ± 0.21 kcal/mol. Also, on Link_TSG6 [1] (Table 1, ITC), the Kd (usually the free concentration of one partner at which half of the binding sites on the other are occupied at equilibrium, for simple one-to-one binding) is 1.09 ± 0.04 µM. The “−TΔS” value at Link_TSG6 [1] (Table 4, ITC) stood at 0.162 ± 0.21 kcal•mol^a1. Further, at Link_TSG6 [1], the “% Binding affinity Link_TSG6” value is reported as 100%. Besides, on recombinant human TSG-6, the “Substrate for HC transfer” value was “No” and the “Activity as substrate for HC transfer (text)” value (“Activity as substrate” for short) was “did not”. Moreover, the “% HAn^AN: percentage of binding affinity (KB) compared to the unmodified oligosaccharide of the same length” value on hisCD44_HABD^20–169 (Table 2, MST) stood at 100%. Also, at hisCD44_HABD^20–169 (setting [3]), the Kd was 103 µM. The “% HAx^AN: percentage of binding affinity (KB) compared to the unmodified oligosaccharide of the same length” value (“% HAx^AN: percentage of binding affinity” below) on hisCD44_HABD^20–169 (Table 5, MST) stood at 100%. Moreover, the “% Binding affinity hisCD44_HABD^20–169” value on hisCD44_HABD^20–169 was determined as 100%.

On to `CC(=O)N[C@H]1[C@H](O[C@H]2[C@H](O)[C@@H](O)[C@H](O[C@H]3[C@H](O)[C@@H](CO)O[C@@H](O[C@H]4[C@H](O)[C@@H](O)[C@H](O[C@@H]([C@H](O)[C@H](O)CO)[C@H](CNc5ccc6c(c5)CCC6)NC(C)=O)O[C@@H]4C(=O)O)[C@@H]3NC(C)=O)O[C@@H]2C(=O)O)O[C@H](CO)[C@@H](O)[C@@H]1O[C@@H]1O[C@H](C(=O)O)[C@@H](O)[C@H](O)[C@H]1O` [HA6-5AI], for which the “% of binding to Link_TSG6 compared to the unmodified oligosaccharide of the same length” value on Link_TSG6 [1] (ITC) was around 162%. Further, on Link_TSG6 [1] (Table 4, ITC), the N was 1.03 ± 0.02, the ΔG is -8.43 ± 0.08 kcal/mol, the ΔH is -7.46 ± 0.37 kcal/mol and the “−TΔS” value is listed as −0.96 ± 0.42 kcal•mol^a1. For the same molecule, the Kd on Link_TSG6 [1] (Table 4, ITC) worked out at 0.68 ± 0.08 µM. Also, the “% Binding affinity Link_TSG6” value at Link_TSG6 [1] turned out to be 162%. Moreover, on recombinant human TSG-6, the “Substrate for HC transfer” value was “No” and the “Activity as substrate” value was “No HC•HA6 complexes were observed”. In addition, at hisCD44_HABD^20–169 (MST), the “% of binding to hisCD44_HABD^20–169 compared to the unmodified oligosaccharide of the same length” value is on record as 133% and the “Fold increase in affinity for CD44_HABD compared to the unmodified oligosaccharide” value is 1.3 fold. For the same molecule, the “% HAx^AN: percentage of binding affinity” value on hisCD44_HABD^20–169 (Table 5, MST) came to 133%. Besides, the Kd on hisCD44_HABD^20–169 (setting [4]) came out at 77 ± 12 µM. Besides, the “% Binding affinity hisCD44_HABD^20–169” value at hisCD44_HABD^20–169 is given as 133%.

For `CC(=O)N[C@H]1[C@H](O[C@H]2[C@H](O)[C@@H](O)[C@H](O[C@H]3[C@H](O)[C@@H](CO)O[C@@H](O[C@H]4[C@H](O)[C@@H](O)[C@H](O[C@H]5[C@H](O)[C@@H](CO)O[C@@H](O[C@H]6[C@H](O)[C@@H](O)[C@H](O[C@H]7[C@H](O)[C@@H](CO)OC(O)[C@@H]7NC(C)=O)O[C@@H]6C(=O)O)[C@@H]5NC(C)=O)O[C@@H]4C(=O)O)[C@@H]3NC(C)=O)O[C@@H]2C(=O)O)O[C@H](CO)[C@@H](O)[C@@H]1O[C@@H]1O[C@H](C(=O)O)[C@@H](O)[C@H](O)[C@H]1O` (stereo partly shown) [HA8^AN, reference compound], on Link_TSG6 [1] (Table 1, ITC), the N turned out to be 0.98 ± 0.01, the ΔG is -8.89 ± 0.03 kcal/mol, the ΔH is -7.26 ± 0.20 kcal/mol and the “−TΔS” value is -1.63 ± 0.24 kcal/mol. For the same molecule, the Kd on Link_TSG6 [1] (Table 1, ITC) was found to be 0.31 ± 0.02 µM. The “−TΔS” value on Link_TSG6 [1] (Table 4, ITC) is reported as −1.63 ± 0.24 kcal•mol^a1. On Link_TSG6 [1], the “% Binding affinity Link_TSG6” value turned out to be 100%. In addition, in the assay with Link_TSG6 [2], the “Fold greater affinity for Link_TSG6 (compared to HA8^AN)” value is given as 1.9 fold. Besides, on recombinant human TSG-6, the “Substrate for HC transfer” value is reported as “Yes” and the “Activity as substrate” value is “acted as substrates”. For the same molecule, the dissociation constant Kd at hisCD44_HABD^20–169 (MST, read-out: KD for hisCD44_HABD^20–169) is around 50 µM. The “% HAn^AN: percentage of binding affinity (KB) compared to the unmodified oligosaccharide of the same length” value at hisCD44_HABD^20–169 (Table 2, MST) was determined as 100%. Also, the Kd at hisCD44_HABD^20–169 (setting [3]) came to 51 µM. On hisCD44_HABD^20–169 (Table 5, MST), the “% HAx^AN: percentage of binding affinity” value came out at 100%. Also, at hisCD44_HABD^20–169 (setting [4]), the Kd was 51 ± 5 µM. In addition, the “% Binding affinity hisCD44_HABD^20–169” value at hisCD44_HABD^20–169 is given as 100%.

These data come from paper PMC11460632, “Chemical modification of hyaluronan oligosaccharides differentially modulates hyaluronan–hyaladherin interactions” (The Journal of Biological Chemistry, 2024).
